From patent US11203601B2, “Tricyclic compounds as glycogen synthase kinase 3 (GSK3) inhibitors and uses thereof” (The Broad Institute, Inc., priority 2017, dated 2021)

Columns and labels:
Assay in all cases: Carna kinome panel
Assay type in all cases: biochemical
ALK(L1152insT) = tested on: ALK(L1152insT)
Experimental: Briefly, a selection of compounds was screened against a panel of kinases at a single concentration of 10 μM. […] This was completed using one of two assays, depending on the kinase being examined: 1) IMAP Assay. A solution of 4× inhibitor, 4× substrate/ATP/metal solution and 2× kinase solution was prepared with assay buffer (20 mM HEPES, 0.01% Tween-20, 2 mM DTT, pH 7.4) and mixed, then incubated in 384-well black plates for 1 hour at room temperature. The IMAP binding reagent (IMAP Screening Express kit; Molecular Devices) was added to each well and incubated for 30 minutes. […] 2) Off-Chip Mobility Shift Assay (MSA). A solution of 4× inhibitor, 4× substrate/ATP/metal solution and 2× kinase solution was prepared with assay buffer (20 mM HEPES, 0.01% Triton X-100, 2 mM DTT, pH 7.5) and mixed, then incubated in 384-well plates for 1 or 5 hours depending on the kinase, at room temperature. Termination buffer (QuickScout Screening assist MSA; Carna Biosciences) was added to each well. The entire reaction mixture was then applied to a LabChip3000 system (Caliper Life Science), and the product and substrate peptide peaks were separated and quantified. […] The entire reaction mixture was then applied to a LabChip3000 system (Caliper Life Science), and the product and substrate peptide peaks were separated and quantified.

CK1α = CK1α (Homo sapiens (Human), UniProt P48729); settings: read-out: % Inhibition at 10 μM of the test compound
SYK = SYK (Homo sapiens (Human), UniProt P43405); settings: read-out: % Inhibition at 10 μM of the test compound
MRCKβ = MRCKβ (Homo sapiens (Human), UniProt Q9Y5S2); settings: read-out: % Inhibition at 10 μM of the test compound
PKCζ = PKCζ (Homo sapiens (Human), UniProt Q05513); settings: read-out: % Inhibition at 10 μM of the test compound
EML4-ALK = EML4-ALK (Homo sapiens (Human), UniProt Q9UM73); settings: read-out: % Inhibition at 10 μM of the test compound
NPM1-ALK = NPM1-ALK (Homo sapiens (Human), UniProt P06748+Q9UM73); settings: read-out: % Inhibition at 10 μM of the test compound
MAPKAPK3 = MAPKAPK3 (Homo sapiens (Human), UniProt Q16644); settings: read-out: % Inhibition at 10 μM of the test compound
MAPKAPK3, sequence (Q16644 whole entry): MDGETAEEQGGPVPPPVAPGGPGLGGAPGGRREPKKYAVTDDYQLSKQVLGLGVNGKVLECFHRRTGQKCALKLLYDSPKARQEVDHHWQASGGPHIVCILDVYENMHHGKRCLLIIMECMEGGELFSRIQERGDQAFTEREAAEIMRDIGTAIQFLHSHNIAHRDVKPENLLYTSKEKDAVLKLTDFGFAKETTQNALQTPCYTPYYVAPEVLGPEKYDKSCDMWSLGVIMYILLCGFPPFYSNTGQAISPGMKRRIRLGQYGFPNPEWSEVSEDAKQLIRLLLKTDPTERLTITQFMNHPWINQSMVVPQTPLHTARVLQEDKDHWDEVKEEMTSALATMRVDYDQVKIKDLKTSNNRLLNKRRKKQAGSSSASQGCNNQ

MSK1 = MSK1 (Homo sapiens (Human), UniProt O75582); settings: read-out: % Inhibition at 10 μM of the test compound
MST2 = MST2 (Homo sapiens (Human), UniProt Q13188); settings: read-out: % Inhibition at 10 μM of the test compound
NuaK2 = NuaK2 (Homo sapiens (Human), UniProt Q9H093); settings: read-out: % Inhibition at 10 μM of the test compound
DCAMKL2 = DCAMKL2 (Homo sapiens (Human), UniProt Q8N568); settings: read-out: % Inhibition at 10 μM of the test compound
KIT(D816V) = KIT(D816V) (Homo sapiens (Human), UniProt P10721, D816V); settings: read-out: % Inhibition at 10 μM of the test compound
HER4 = HER4 (Homo sapiens (Human), UniProt Q15303); settings: read-out: % Inhibition at 10 μM of the test compound
HER4, sequence (Q15303 26-1308): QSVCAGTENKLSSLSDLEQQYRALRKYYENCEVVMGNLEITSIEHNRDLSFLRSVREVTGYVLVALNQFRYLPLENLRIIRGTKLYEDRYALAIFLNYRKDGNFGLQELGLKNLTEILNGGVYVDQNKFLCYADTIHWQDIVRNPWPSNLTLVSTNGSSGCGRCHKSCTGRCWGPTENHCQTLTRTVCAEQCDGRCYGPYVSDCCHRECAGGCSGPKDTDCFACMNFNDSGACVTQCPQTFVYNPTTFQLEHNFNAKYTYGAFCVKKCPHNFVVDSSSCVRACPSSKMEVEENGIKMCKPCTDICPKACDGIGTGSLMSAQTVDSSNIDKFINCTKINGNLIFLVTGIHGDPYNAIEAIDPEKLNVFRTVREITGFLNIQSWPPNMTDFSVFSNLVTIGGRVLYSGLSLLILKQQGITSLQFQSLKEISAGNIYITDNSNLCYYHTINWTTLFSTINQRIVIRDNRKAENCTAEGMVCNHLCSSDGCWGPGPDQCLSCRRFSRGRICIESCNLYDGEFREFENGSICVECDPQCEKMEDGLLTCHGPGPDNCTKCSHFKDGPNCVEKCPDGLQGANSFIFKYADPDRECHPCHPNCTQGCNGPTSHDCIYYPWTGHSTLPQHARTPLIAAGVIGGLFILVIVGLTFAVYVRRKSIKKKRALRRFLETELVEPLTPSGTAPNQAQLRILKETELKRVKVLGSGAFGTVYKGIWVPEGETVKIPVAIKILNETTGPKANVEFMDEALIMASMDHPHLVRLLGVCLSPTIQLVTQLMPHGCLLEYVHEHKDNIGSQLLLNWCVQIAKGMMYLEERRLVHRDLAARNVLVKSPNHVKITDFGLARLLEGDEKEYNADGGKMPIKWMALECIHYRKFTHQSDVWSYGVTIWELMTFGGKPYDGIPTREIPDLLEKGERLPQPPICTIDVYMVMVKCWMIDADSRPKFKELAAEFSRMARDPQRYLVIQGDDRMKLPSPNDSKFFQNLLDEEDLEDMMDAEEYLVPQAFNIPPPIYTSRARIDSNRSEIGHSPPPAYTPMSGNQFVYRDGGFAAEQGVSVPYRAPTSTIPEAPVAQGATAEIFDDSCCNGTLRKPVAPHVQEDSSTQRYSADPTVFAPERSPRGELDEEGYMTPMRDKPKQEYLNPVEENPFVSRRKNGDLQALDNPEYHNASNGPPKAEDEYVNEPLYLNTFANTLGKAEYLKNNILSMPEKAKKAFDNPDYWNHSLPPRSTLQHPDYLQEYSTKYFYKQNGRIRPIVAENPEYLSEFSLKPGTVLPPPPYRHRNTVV

FGFR1 = FGFR1 (Homo sapiens (Human), UniProt P11362); settings: read-out: % Inhibition at 10 μM of the test compound
CDC7/ASK = CDC7/ASK (Homo sapiens (Human), UniProt O00311); settings: read-out: % Inhibition at 10 μM of the test compound
CHK1 = CHK1 (Homo sapiens (Human), UniProt O14757); settings: read-out: % Inhibition at 10 μM of the test compound
PIM2 = PIM2 (Homo sapiens (Human), UniProt Q9P1W9); settings: read-out: % Inhibition at 10 μM of the test compound
p70S6K = p70S6K (Homo sapiens (Human), UniProt P23443); settings: read-out: % Inhibition at 10 μM of the test compound
p70S6K, sequence (P23443 whole entry): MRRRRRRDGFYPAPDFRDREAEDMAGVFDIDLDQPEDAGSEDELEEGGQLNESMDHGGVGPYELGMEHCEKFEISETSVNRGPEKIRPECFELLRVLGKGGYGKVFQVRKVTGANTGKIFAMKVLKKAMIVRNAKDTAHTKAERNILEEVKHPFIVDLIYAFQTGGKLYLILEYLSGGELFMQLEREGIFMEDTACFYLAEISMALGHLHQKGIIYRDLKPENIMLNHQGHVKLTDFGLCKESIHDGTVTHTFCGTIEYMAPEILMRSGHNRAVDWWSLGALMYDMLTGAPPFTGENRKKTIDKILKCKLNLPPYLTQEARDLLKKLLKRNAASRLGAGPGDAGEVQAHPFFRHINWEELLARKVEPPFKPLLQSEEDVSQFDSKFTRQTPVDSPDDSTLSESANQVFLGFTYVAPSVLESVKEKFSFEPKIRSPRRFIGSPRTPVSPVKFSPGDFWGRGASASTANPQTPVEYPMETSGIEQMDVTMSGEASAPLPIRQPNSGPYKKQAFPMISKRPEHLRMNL

FGFR4 = FGFR4 (Homo sapiens (Human), UniProt P22455); settings: read-out: % Inhibition at 10 μM of the test compound
FGFR4, sequence (P22455 22-802): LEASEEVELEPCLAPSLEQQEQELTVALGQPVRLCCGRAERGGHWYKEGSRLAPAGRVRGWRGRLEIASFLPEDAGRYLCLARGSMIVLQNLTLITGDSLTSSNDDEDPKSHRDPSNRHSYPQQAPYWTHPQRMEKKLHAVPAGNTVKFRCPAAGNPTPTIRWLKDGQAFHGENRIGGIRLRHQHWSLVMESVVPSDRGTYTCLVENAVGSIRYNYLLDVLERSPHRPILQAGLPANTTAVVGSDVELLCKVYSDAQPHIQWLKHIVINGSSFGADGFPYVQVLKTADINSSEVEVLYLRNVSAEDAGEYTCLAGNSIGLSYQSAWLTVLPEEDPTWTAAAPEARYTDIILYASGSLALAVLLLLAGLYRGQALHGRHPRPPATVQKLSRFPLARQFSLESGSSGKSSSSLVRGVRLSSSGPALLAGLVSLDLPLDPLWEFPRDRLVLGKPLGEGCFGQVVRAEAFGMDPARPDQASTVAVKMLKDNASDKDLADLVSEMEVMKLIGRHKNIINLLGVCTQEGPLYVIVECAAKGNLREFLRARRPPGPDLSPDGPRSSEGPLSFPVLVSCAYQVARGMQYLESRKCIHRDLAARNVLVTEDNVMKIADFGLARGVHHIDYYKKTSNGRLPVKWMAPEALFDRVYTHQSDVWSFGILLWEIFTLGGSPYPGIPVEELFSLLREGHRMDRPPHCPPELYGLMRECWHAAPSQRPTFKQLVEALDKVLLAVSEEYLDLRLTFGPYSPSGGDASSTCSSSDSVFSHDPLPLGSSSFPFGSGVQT

KIT(T670I) = KIT(T670I) (Homo sapiens (Human), UniProt P10721, T670I); settings: read-out: % Inhibition at 10 μM of the test compound
CK1ε = CK1ε (Homo sapiens (Human), UniProt P49674); settings: read-out: % Inhibition at 10 μM of the test compound
MLK1_Cascade = MLK1_Cascade (Homo sapiens (Human), UniProt P80192); settings: read-out: % Inhibition at 10 μM of the test compound
MLK1_Cascade, sequence (P80192 whole entry): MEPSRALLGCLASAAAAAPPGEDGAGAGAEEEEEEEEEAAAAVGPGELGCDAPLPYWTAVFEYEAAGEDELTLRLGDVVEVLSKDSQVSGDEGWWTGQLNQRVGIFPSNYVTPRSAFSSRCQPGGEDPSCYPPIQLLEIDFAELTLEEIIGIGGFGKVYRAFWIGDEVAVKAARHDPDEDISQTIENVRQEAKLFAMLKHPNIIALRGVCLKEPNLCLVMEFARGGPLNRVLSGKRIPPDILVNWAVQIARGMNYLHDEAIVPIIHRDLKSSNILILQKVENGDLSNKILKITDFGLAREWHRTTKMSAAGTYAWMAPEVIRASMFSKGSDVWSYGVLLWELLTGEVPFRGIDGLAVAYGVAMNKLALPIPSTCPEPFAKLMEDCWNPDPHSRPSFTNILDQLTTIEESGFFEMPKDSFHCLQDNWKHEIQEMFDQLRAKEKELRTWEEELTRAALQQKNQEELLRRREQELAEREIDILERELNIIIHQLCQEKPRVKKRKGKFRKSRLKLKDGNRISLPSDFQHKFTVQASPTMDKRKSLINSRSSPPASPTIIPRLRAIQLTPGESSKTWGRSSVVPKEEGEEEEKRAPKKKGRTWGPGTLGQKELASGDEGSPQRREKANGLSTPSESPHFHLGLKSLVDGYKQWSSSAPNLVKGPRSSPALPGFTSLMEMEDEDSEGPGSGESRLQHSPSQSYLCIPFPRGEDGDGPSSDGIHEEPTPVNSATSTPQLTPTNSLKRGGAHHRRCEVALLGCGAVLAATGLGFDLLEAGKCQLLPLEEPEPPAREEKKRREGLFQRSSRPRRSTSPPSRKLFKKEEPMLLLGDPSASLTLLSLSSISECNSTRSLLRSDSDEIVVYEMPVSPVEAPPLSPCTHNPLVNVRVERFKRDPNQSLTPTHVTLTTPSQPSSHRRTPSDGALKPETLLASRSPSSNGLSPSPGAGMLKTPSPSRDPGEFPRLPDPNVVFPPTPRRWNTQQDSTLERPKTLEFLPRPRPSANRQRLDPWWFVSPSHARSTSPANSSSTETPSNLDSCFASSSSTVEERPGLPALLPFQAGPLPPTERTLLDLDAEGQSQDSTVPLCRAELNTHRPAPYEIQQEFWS

PKD2 = PKD2 (Homo sapiens (Human), UniProt Q9BZL6); settings: read-out: % Inhibition at 10 μM of the test compound
CAMK1α = CAMK1α (Homo sapiens (Human), UniProt Q14012); settings: read-out: % Inhibition at 10 μM of the test compound
CDK5/p25 = CDK5/p25 (Homo sapiens (Human), UniProt Q00535); settings: read-out: % Inhibition at 10 μM of the test compound
ABL(T315I) = ABL(T315I) (Homo sapiens (Human), UniProt P00519, T315I); settings: read-out: % Inhibition at 10 μM of the test compound
NEK7 = NEK7 (Homo sapiens (Human), UniProt Q8TDX7); settings: read-out: % Inhibition at 10 μM of the test compound
AurA = AurA (Homo sapiens (Human), UniProt O14965); settings: read-out: % Inhibition at 10 μM of the test compound
LCK = LCK (Homo sapiens (Human), UniProt P06239); settings: read-out: % Inhibition at 10 μM of the test compound
ACK = ACK (Homo sapiens (Human), UniProt Q07912); settings: read-out: % Inhibition at 10 μM of the test compound
AMPKα1/β1/γ1 = AMPKα1/β1/γ1 (Homo sapiens (Human), UniProt Q13131); settings: read-out: % Inhibition at 10 μM of the test compound
LYNb = LYNb (Homo sapiens (Human), UniProt P07948); settings: read-out: % Inhibition at 10 μM of the test compound
MELK = MELK (Homo sapiens (Human), UniProt Q14680); settings: read-out: % Inhibition at 10 μM of the test compound
HGK = HGK (Homo sapiens (Human), UniProt O95819); settings: read-out: % Inhibition at 10 μM of the test compound
BTK = BTK (Homo sapiens (Human), UniProt Q06187); settings: read-out: % Inhibition at 10 μM of the test compound
ALK(G1202R) = ALK(G1202R) (Homo sapiens (Human), UniProt Q9UM73, G1202R); settings: read-out: % Inhibition at 10 μM of the test compound
IGF1R = IGF1R (Homo sapiens (Human), UniProt P08069); settings: read-out: % Inhibition at 10 μM of the test compound
CDC2/CycB1 = CDC2/CycB1 (Homo sapiens (Human), UniProt P06493); settings: read-out: % Inhibition at 10 μM of the test compound
PKD3 = PKD3 (Homo sapiens (Human), UniProt O94806); settings: read-out: % Inhibition at 10 μM of the test compound
PKD3, sequence (O94806 whole entry, looked up): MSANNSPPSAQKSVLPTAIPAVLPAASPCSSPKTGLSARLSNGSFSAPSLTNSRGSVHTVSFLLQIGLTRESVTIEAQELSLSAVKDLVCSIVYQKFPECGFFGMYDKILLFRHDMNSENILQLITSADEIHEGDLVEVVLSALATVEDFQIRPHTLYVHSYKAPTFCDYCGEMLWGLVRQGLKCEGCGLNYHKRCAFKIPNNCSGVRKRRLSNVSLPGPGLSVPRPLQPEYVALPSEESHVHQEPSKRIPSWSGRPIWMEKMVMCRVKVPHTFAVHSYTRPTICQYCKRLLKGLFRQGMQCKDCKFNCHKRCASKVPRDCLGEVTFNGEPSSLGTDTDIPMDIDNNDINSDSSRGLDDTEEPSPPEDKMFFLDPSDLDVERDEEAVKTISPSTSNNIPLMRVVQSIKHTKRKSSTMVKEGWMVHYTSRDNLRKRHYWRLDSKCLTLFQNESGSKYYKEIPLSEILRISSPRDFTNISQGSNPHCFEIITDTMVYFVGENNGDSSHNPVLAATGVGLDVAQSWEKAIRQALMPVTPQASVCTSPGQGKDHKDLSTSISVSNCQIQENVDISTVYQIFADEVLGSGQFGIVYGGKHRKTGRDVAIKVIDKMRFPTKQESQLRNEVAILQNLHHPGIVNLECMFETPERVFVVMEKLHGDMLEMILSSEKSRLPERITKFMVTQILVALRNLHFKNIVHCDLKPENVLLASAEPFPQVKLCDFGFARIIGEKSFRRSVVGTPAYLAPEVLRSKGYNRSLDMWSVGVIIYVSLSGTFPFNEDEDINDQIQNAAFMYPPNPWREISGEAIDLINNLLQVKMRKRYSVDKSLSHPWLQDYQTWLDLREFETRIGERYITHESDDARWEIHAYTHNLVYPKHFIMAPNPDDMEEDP

CCC1(c2ccccc2)C2=C(CC(C)(C)CC2=O)Nc2ncsc21 (stereo not shown) [Compound 1, 9-Ethyl-6,6-dimethyl-9-phenyl-5,6,7,9-tetrahydrothiazolo[4,5-b]quinolin-8(4H)-one]
% Inhibition at 10 μM of the test compound (ALK(L1152insT)): −2.3%
inhibition at 10 µM (CK1α): 4.3%
inhibition at 10 µM (SYK): -5.8%
inhibition at 10 µM (MRCKβ): 2%
inhibition at 10 µM (PKCζ): 0.5%
inhibition at 10 µM (EML4-ALK): 2.9%
inhibition at 10 µM (NPM1-ALK): -7.5%
inhibition at 10 µM (MAPKAPK3): -15.5%
inhibition at 10 µM (MSK1): -1%
inhibition at 10 µM (MST2): 4.2%
inhibition at 10 µM (NuaK2): 1.5%
inhibition at 10 µM (DCAMKL2): -7.6%
inhibition at 10 µM (KIT(D816V)): -4.8%
inhibition at 10 µM (HER4): -4%
inhibition at 10 µM (FGFR1): -5%
inhibition at 10 µM (CDC7/ASK): -9.1%
inhibition at 10 µM (CHK1): 7%
inhibition at 10 µM (PIM2): 0.3%
inhibition at 10 µM (p70S6K): 2.9%
inhibition at 10 µM (FGFR4): 2.8%
inhibition at 10 µM (KIT(T670I)): -4.2%
inhibition at 10 µM (CK1ε): 3.1%
inhibition at 10 µM (MLK1_Cascade): 7.5%
inhibition at 10 µM (PKD2): -13.8%
inhibition at 10 µM (CAMK1α): -2.6%
inhibition at 10 µM (CDK5/p25): 41.2%
inhibition at 10 µM (ABL(T315I)): 0.4%
inhibition at 10 µM (NEK7): -3.9%
inhibition at 10 µM (AurA): 0.4%
inhibition at 10 µM (LCK): 1.7%
inhibition at 10 µM (ACK): -4.1%
inhibition at 10 µM (AMPKα1/β1/γ1): 7.6%
inhibition at 10 µM (LYNb): 0.8%
inhibition at 10 µM (MELK): 1.6%
inhibition at 10 µM (HGK): 0.4%
inhibition at 10 µM (BTK): -1.6%
inhibition at 10 µM (ALK(G1202R)): -5%
inhibition at 10 µM (IGF1R): 2%
inhibition at 10 µM (CDC2/CycB1): 22.7%
inhibition at 10 µM (PKD3): 2.7%
